The values below come from patent US8604042B2, “Bi-aryl meta-pyrimidine inhibitors of kinases” (TargeGen, Inc., priority 2005, dated 2013).

Where a name gives a salt, the structure may show the parent alone.

By IC50 is commonly meant the concentration at which inhibition is half-maximal.

For this experiment, the target named is T1, recombinant JAK2 (Homo sapiens, UniProt O60674).
T1 construct: purchased Upstate Cell Signaling Solutions
T1 sequence (O60674 808-1132 limits assumed): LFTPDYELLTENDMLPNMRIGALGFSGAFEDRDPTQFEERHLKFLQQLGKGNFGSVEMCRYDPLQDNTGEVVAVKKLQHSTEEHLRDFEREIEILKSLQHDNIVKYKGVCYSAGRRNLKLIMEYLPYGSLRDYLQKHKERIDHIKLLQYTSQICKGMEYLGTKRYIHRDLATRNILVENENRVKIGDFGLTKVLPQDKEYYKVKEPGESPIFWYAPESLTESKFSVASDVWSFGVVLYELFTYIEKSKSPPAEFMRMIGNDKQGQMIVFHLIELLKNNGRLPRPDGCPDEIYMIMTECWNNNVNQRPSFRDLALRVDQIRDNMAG
As to the kind of experiment: IC50 value determinations for Jak2 kinase, luminescence-based kinase assay (Kinase-Glo). It is filed as biochemical. The conditions noted are these: Table 1.
As to `Cc1cnc(Nc2ccc(OCCN3CCCC3)cc2)nc1Nc1ccc2sccc2c1` [N4-Benzo[b]thiophen-5-yl-5-methyl-N2-[4-(2-pyrrolidin-1-yl-ethoxy)-phenyl]-pyrimidine-2,4-diamine], the 50% inhibitory concentration (IC50) came out at 28.5 nM.
Regarding `Cc1cnc(Nc2ccc(N3CCN(C)CC3)cc2)nc1Nc1cccc(S(=O)(=O)N2C(C)CCC2C)c1` (centres unmarked) [N4-[3-(2,5-Dimethyl-pyrrolidine-1-sulfonyl)-phenyl]-5-methyl-N2-[4-(4-methyl-piperazin-1-yl)-phenyl]-pyrimidine-2,4-diamine Hydrochloride], the 50% inhibitory concentration (IC50) is 18.8 nM.
With `CCN(CC)S(=O)(=O)c1cccc(Nc2nc(Nc3ccc(N4CCN(C)CC4)cc3)ncc2C)c1` [N,N-Diethyl-3-{5-methyl-2-(4-(4-methyl-piperazin-1-yl)-phenylamino]-pyrimidin-4-ylamino}-benzenesulfonamide], the IC50 was 60.3 nM.
For the molecule `Cc1cnc(Nc2ccc(N3CCN(C)CC3)cc2)nc1Nc1cccc(S(=O)(=O)N(C)C)c1` [N,N-Dimethyl-3-{5-methyl-2-[4-(4-methyl-piperazin-1-yl)-phenylamino]-pyrimidin-4-ylamino}-benzenesulfonamide], the IC50 stood at 9.5 nM.
Regarding `CC(=O)Nc1cccc(Nc2nc(Nc3ccc(OC4CCNCC4)cc3)ncc2C)c1C` [N-(2-Methyl-3-(5-methyl-2-[4-(piperidin-4-yloxy)-phenylamino]-pyrimidin-4-ylamino}-phenyl)-acetamide], the half-inhibitory concentration (IC50) worked out at 146 nM.
As to `CC(=O)Nc1cccc(Nc2nc(Nc3ccc(OC4CCNCC4)cc3)ncc2C)c1` [N-(3-{5-Methyl-2-[4-(piperidin-4-yloxy)-phenylamino]-pyrimidin-4-ylamino}-phenyl)-acetamide], the IC50 was found to be 137 nM.
On to `c1ccc(Cc2ccnc(Nc3ccc(OCCN4CCCC4)cc3)n2)cc1` [N-(4-(2-(pyrrolidin-1-yl)ethoxy)phenyl)-4-benzylpyrimidin-2-amine], for which the IC50 was 702 nM.
As for `Cc1cnc(Nc2ccc(N3CCN(C)CC3)cc2)nc1Nc1cccc(S(=O)(=O)NC2CCCCC2)c1` [N-Cyclohexyl-3-{5-methyl-2-[4-(4-methyl-piperazin-1-yl)-phenylamino)-pyrimidin-4-ylamino}-benzenesulfonamide], the IC50 came to 39.4 nM.
As to `Cc1cnc(Nc2ccc(N3CCN(C)CC3)cc2)nc1Nc1cccc(S(=O)(=O)NC2CCCC2)c1` [N-Cyclopentyl3-{5-Methyl-2-[4-(4-methyl-piperazin-1-yl)-phenylamino]-pyrimidine-4-ylamino}-benzenesulfonamide Hydrochloride], the IC50 is 19.8 nM.
Turning to `Cc1cnc(Nc2ccc(N3CCN(C)CC3)cc2)nc1Nc1cccc(C(=O)NC(C)C)c1` [N-Isopropyl-3-{5-methyl-2-[4-(4-methyl-piperazin-1-yl)-phenylamino]-pyrimidin-4-ylamino}-benzamide], the 50% inhibitory concentration (IC50) stood at 541 nM.
`Cc1cnc(Nc2ccc(N3CCN(C)CC3)cc2)nc1Nc1cccc(S(=O)(=O)NC(C)C)c1` [N-Isopropyl-3-{5-methyl-2-[4-(4-methyl-piperazin-1-yl)-phenylamino]-pyrimidin-4-ylamino}-benzenesulfonamide]: the 50% inhibitory concentration (IC50) is 11.8 nM.
The same measure for `CNC(=O)c1cccc(Nc2nc(Nc3ccc(OCCN4CCCC4)cc3)ncc2C)c1` [N-Methyl-3-{5-methyl-2-[4-(2-pyrrolidin-1-yl-ethoxy)-phenylamino]-pyrimidin-4-ylamino}-benzamide]: 257 nM.
Consider `CNS(=O)(=O)c1cccc(Nc2nc(Nc3ccc(N4CCN(C)CC4)cc3)ncc2C)c1` [N-Methyl-3-{5-methyl-2-[4-(4-methyl-piperazin-1-yl)-phenylamino]-pyrimidin-4-ylamino}-benzenesulfonamide], for which the IC50 stood at 16.1 nM.
The same measure for `Cc1ccc(Nc2nc(Nc3ccc(OCCN4CCCC4)cc3)ncc2C)cc1S(=O)(=O)NC(C)(C)C` [N-tert-Butyl-2-methyl-5-{5-methyl-2-[4-(2-pyrrolidin-1-yl-ethoxy)-phenylamino]-pyrimidin-4-ylamino}-benzenesulfonamide]: 44.4 nM.
